target: Recombinant human ATX (Homo sapiens (Human), UniProt Q13822); experiment: Assessing ATX inhibition (choline release, Amplex Red fluorescence); format: biochemical; settings: ATX 10 nM, LPC 18:1 10 μM, pre-incubated at 37° C. for 20 minutes; mean of n≥2
Experimental: Reagents—LPC (oleoyl (18:1)) was purchased from Avanti Polar Lipids (Alabaster, Ala.) and solubilized in methanol to 20 mM. Amplex Red was obtained from Invitrogen Life Technologies (Paisley, UK) and dissolved in DMSO to 10 mM. Choline oxidase and horseradish peroxidase (HRP) were obtained from Sigma Aldrich (Dorset, UK) and dissolved in HBSS to 20 U/ml and 200 U/ml respectively. All reagents were stored at −20° C. in single use aliquots. All experimental measurements were performed in assay buffer made up immediately prior to use (HBSS, 0.01% BSA essentially fatty acid free).
Protein—Recombinant human ATX was prepared at Novartis (Basel, CH) in a human embryonic kidney (HEK) cell preparation, and stored in single use aliquots of […] (26 μM) stocks stored at −80° C.
Method—All experimental measurements should be performed in black 384 well polystyrene (low volume, round bottom, Corning (3676)) plates. PerkinElmer EnVision (Fluorescence Intensity/Absorbance Monochromator) or Tecan Infinite 200 PRO series plate reader was used to detect change in fluorescent intensity.
Assessing ATX inhibition—ATX activity was determined by measurement of released choline in reactions containing ATX (10 nM), choline oxidase (0.1 U/ml), HRP (100 U/ml), amplex red (50 μM) and LPC 18:1 (10 μM). Compounds of the invention should be prepared as 10 point serial dilutions from 1 μM in duplicate and pre-incubated with ATX at 37° C. for 20 minutes prior to the addition of remaining reagents. The liberated choline was measured from changes in fluorescence intensity (λex 530 nm, λm 590 nm) of the product resurofin at 37° C. every 2 minutes over a 40-minute period. ATX activity was measured as a slope of the linear portion of the progress curve, typically between 14 to 24 minutes.
Data analysis—Slope data was exported to Graphpad prism (Graphpad software, San Diego, Calif.) where data was fitted to equation 1. Y=Bottom+(Top−Bottom)/(1+10^((Log IC50−X)*HillSlope)) Equation 1
IC50 values were determined from the concentration of compound that reduced the total activity by 50% and represent the mean of n≥2.

| IC50 [nM] | Structure (SMILES) |
| --- | --- |
| 3 | Cc1nnn(Cc2cc(C(F)(F)F)ccc2/C=C/C(=O)N2CCN(Cc3ccc(OCCF)cn3)C[C@H]2C)n1 |
| 5 | Cc1nnn(Cc2cc(Cl)ccc2/C=C/C(=O)N2CCN(Cc3ccc(OCCOCCF)cn3)C[C@H]2C)n1 |
| 4 | Cc1nnn(Cc2cc(Cl)ccc2/C=C/C(=O)N2CCN(Cc3ccc(OCCF)cn3)C[C@H]2C)n1 |
| 2 | Cc1nnn(Cc2cc(C(F)(F)F)ccc2CCC(=O)N2CCN(Cc3ccc(OCCF)cn3)C[C@H]2C)n1 |
| 6 | Cc1nnn(Cc2cc(C(F)(F)F)ccc2/C=C/C(=O)N2CCN(Cc3ccc(OCCOCCF)cn3)C[C@H]2C)n1 |
| 1.4 | Cc1nnn(Cc2cc(C(F)(F)F)ccc2/C=C/C(=O)N2CCN(Cc3coc(CF)n3)C[C@H]2C)n1 |
| 13 | COc1cc(CN2CCN(C(=O)/C=C/c3ccc(Cl)cc3Cn3nnc(C)n3)CC2)ccn1 |

— US10450298B2, “PET Imaging agents” (Novartis AG, priority 2015, dated 2019)
